Measurements as given in patent US8236985B2, “Compounds and uses thereof” (Imperial Innovations Ltd., priority 2006, dated 2012).
Like-named read-outs stand apart in the source and are kept apart here. Each block holds one molecule with its values, some of them ahead of it.

Key:
[1] = test system: HDAC (HeLa nuclear extract); experiment: Fluorometric HDAC inhibition assay using the Fluor de Lys assay kit; format: biochemical, human
Experimental: Histone deacetylase inhibition by compounds of the invention is assayed by a commercial fluorescent assay kit (BIOMOL—AK-500). 10 mM stock solutions of compounds of the invention prepared in DMSO are aliquoted and frozen at −20° C. For each assay, a vial of the drug solution is thawed to prepare dilutions of drug in DMSO; the remaining drug is discarded. Working solutions of the assay reagents are prepared according to the manufacturers instructions. For the assay, 10 μl of ×5 concentrations of drug (in triplicate) or HDAC assay buffer is added to 15 μl of dilute HeLa nuclear extract (BIOMOL; D1409) and 25 μl of (2×) Fluor-de-Lys substrate in a micro titre plate (Perkin Elmer # 6005270, Optiplate-96 Black microplate) and thoroughly mixed. […] The reactions are allowed to proceed for 10 min and then stopped by addition of 50 μl of dilute Fluor-de-Lys developer solution. The reaction mixtures are then incubated at room temperature for 15 min and fluorescence is read on a Victor multi-well Fluorescence plate reader at an excitation wavelength of 355 nm and emission wavelength of 460 nm.
To obtain a calibration curve, 50 μl aliquots of deacetylated standards prepared in HDAC assay buffer according to the manufacturer's instructions are mixed with 50 μl of diluted Fluor-de-Lys developer solution and incubated for 10 min at room temperature. The fluorescence is measured as above. A plot of arbitrary fluorescence units (AFU) against deacetylated standard concentration in μM is made. The slope and intercept are determined and used for conversion of inhibitor data AFU into velocity of reaction (V, μM/min). To obtain half-maximal inhibition (EC50), molar concentrations of drug are plotted against V and the EC50 is determined from the sigmoid dose response using the GraphPad Prism software.

MCF-7 cells = experiment: Sulforhodamine B (SRB) cell growth inhibition assay; format: cell-based, human; conditions: N=5-6
Experimental: Stock cultures of MCF-7 and MDA-MB-231 human breast cancer cell lines (American Type Culture Collection, Rockville, Md.) are grown in Dulbecco's Modified Eagle's Medium (DMEM) containing 10% (v/v) foetal calf serum, 2 mM L-glutamine, 100 units/ml penicillin and 100 μg/ml streptomycin at 37° C. in 5% CO2 humidified atmosphere. Cells are counted in a haemocytometer after detachment using 0.25% (w/v) trypsin in Dulbecco's Phosphate Buffered Saline without Ca^2+ or Mg^2+ (DPBS) (Sigma-Aldrich, Gillingham, UK) containing 0.02% (w/v) EDTA. Viability is determined by Trypan blue exclusion. For each cell line, cells are seeded in 96-well microtitre plates at optimal densities determined in prior experiments to ensure exponential growth for the duration of the assay. […] After 48 hour incubation, cell proliferation is determined using the sulforhodamine B colorimetric assay described by Skehan et al. (1990) J. Natl. Cancer Inst. 82, 1107-1112. Briefly, 100 μl of ice cold 40% (w/v) trichloroacetic acid is added to each well and incubated for 1 hour at 4° C. The plate is then rinsed gently with five changes of tap water. To each well is then added 100 μl of 0.4% (w/v) sulforhodamine B in 1% (v/v) acetic acid and incubated for 1 hour at room temperature. The plate is then washed five times with 1% (v/v) acetic acid and allowed to air dry overnight. Bound dye is then solubilised by addition of 100 μl of 10 mM Tris base to each well followed by incubation on a vibrating plate shaker for 30 minutes. Absorbance at 492 nm is then measured on a microtitre plate reader and the results expressed as the mean ±SE for 6 replicates as a % of vehicle control (taken as 100%). The concentration of each compound of the invention that inhibits cell proliferation by 50% (IC50) is determined graphically in each case using non-linear regression analysis to fit inhibition data to the appropriate dose-response curve (GraphPad Prism Version 4.0; GraphPad Software Inc., San Diego, Calif.).
Trichostatin A (TSA) was used as control.

HDAC [2] = conditions: HPLC fractions tested in vitro; cited from earlier work
HDAC [3] = conditions: background statement; cited from earlier work
[4] = Intraperitoneal pharmacokinetic studies in vivo; set-up: species or system mouse; conditions: for Number of UV metabolites: 80 mg/kg i.p.
Experimental: Parent compound and phase I metabolites were separated by HPLC and detected with simultaneous UV and positive ion electrospray mass spectrometry. Metabolites were identified by positive ion electrospray tandem mass spectrometry.
C1-A was introduced at 80 mg/kg in DMSO (0.0015 ml/g; 30 μl) intraperitoneally into the mouse.

[5] = cited from earlier work
[6] = test system: N-methyl-N-nitrosourea carcinogen-induced rat mammary cancer; conditions: 500 μg/kg/day s.c. for 4 weeks; cited from earlier work
[7] = test system: MCF7 and MDA-MB-435 human mammary tumour xenografts; experiment: Human mammary tumour xenografts in immunodeficient mice; format: in vivo, mouse; conditions: 20-40 mg/kg/day i.p. for 2 weeks
[8] = Pharmacokinetic studies in vivo after intravenous injection; set-up: species or system mouse; conditions: 80 mg/kg i.v.
Experimental: C1-A at 80 mg/kg in 10% DMSO, 5% Tween 20 and 85% saline was injected i.v. into the mouse. Plasma samples were deproteinated with two volume equivalents of methanol, then 200 μl was analysed by reversed-phase high pressure liquid chromatography (5 μm C18 column and 10 mM ammonium acetate/acetonitrile gradient) with ultraviolet detection at a wavelength of 351 nm. C1-A was detectable in plasma up to 60 min after i.v. injection.

[9] = test system: Histone H4 acetylation, pRb and Cyclin D1 in MCF-7 cells; experiment: Western blots of acetyl-H4, pRb and cyclin D1; format: cell-based, human; conditions: MCF-7 cells treated 24 h; western blot (FIG. 13)
Experimental: MCF-7 cells were treated with drug or vehicle (equivalent concentration of DMSO in growth media) for 24 h. Cells were harvested and homogenised. The respective proteins (acetyl-H4, pRb and cyclin D1) in supernatants of these homogenates were visualised by western blot analysis as previously described (Leyton J. et al., Cancer Res. (2006) 66(15): 7621-9).

[10] = test system: HCT116 human colon cancer cells; experiment: Efficacy in vivo, HCT116 tumour-bearing mice; set-up: species or system mouse; conditions: 80 mg/ml i.p. daily for 7 days, n=1; for Efficacy in vivo (tumour volume vs vehicle control): HCT116 s.c. tumours
Experimental: The study was carried out at n=1 each for drug- or vehicle-treated mice. HCT116 human colon cancer cells were injected subcutaneously into the back of mice to form tumours.
When the tumours were about ˜125 mm^3, the mice were injected with C1-A at 80 mg/ml or vehicle (10% DMSO, 5% Tween 20 and 85% saline) intraperitoneally daily for 7 days. Tumour sizes were measured every 1-2 days in 3 orthogonal axes by callipers to determine tumour volume.

[11] = first of two independent assay sets, N=3, read-out: Average EC50
[12] = second of two independent assay sets, N=3, read-out: Average EC50
[13] = MCF-7 cells, first of two independent assays
[14] = MCF-7 cells, second of two independent assays

EC50 [1, 11]: 320 nM
EC50 [1, 12]: 450 nM
EC50 (MCF-7 cells; Homo sapiens, MCF7, MCF-7 cells, first of two independent assays): 6000 nM
EC50 (MCF-7 cells; Homo sapiens, MCF7, MCF-7 cells, second of two independent assays): 14000 nM
Molecule: CCN(CC)c1ccc(S(=O)(=O)Nc2ccc(/C=C(C)/C=C/C(=O)NO)cc2)cc1 [Example C1-B, (E,E)-4-methyl-5-{4-[4-(diethylamino)phenyl]sulfonamido}penta-2,4-dienoic acid N-hydroxyamide]

Molecule: CNc1ccc(C(=O)C(C)C=C(C)C=CC(=O)NO)cc1 (centres unmarked) [N-demethylated TSA metabolite, N-demethylated TSA]
HDAC inhibitory potency relative to TSA (HDAC [2]): equipotent

Molecule: CC(/C=C/C(=O)NO)=C\[C@@H](C)C(=O)c1ccc(N(C)C)cc1 [TSA, Trichostatin A]
Concentrations at which HDAC is inhibited (HDAC [3]): low nanomolar
Number of UV metabolites ([4]; mice, at 20 minutes (FIG. 17 and Sanderson et al, 2004)): 17
Metabolism in vivo ([4]; FIG. 17): rapidly metabolised in vivo
Number of UV metabolites ([5]; TSA, at 20 minutes (Sanderson et al, 2004), quoted in Example 10): 17
Parent drug remaining ([5]; TSA, at 20 minutes (Sanderson et al, 2004)): almost no parent drug
Cmax ([5]; plasma, 80 mg/kg i.p., mice): 40000 ng/mL
Half-life ([5]; plasma, 80 mg/kg i.p., mice): 6.3 min
Anti-tumour activity [6]: potent anti-tumour activity
Toxicity in vivo [6]: without significant toxicity
Anti-tumour activity [7]: anti-tumour activity
EC50 (MCF-7 cells; [13]): 75 nM
EC50 (MCF-7 cells; [14]): 110 nM

Molecule: (E,E)-4-methyl-5-{4-[4-bis-(2-chloroethylamino)phenyl]-sulfonamido}penta-2,4-dienoic acid N-hydroxyamide [Example C1-A]
EC50 [1, 11]: 590 nM
EC50 [1, 12]: 310 nM
Stability in vivo ([8]; Balb/c mice (FIG. 14)): stable in vivo
Detection in liver ([8]; mouse): detectable in the liver at all time points
Time up to which compound was detectable in plasma ([8]; mouse, HPLC-UV): up to 60 min
Stability in vivo ([4]; 80 mg/kg i.p. in DMSO, mouse, HPLC-UV (FIG. 16)): stable in vivo
Number of UV metabolites ([4]; mouse, at 60 minutes): 5
Concentration at which pRb & cyclin D are inhibited and H4 hyperacetylation is induced, relative to TSA [9]: ≥ 10 × [TSA]
EC50 (MCF-7 cells; [13]): 3900 nM
EC50 (MCF-7 cells; [14]): 6800 nM
Toxicity based on measurement of body weight [10]: no toxicity was detectable
Efficacy in vivo (tumour volume vs vehicle control) [10]: Tumour volume was greater in the control than in the C1-A-treated mouse
Efficacy in vivo (tumour volume vs vehicle control) ([10]; listed as C1A): efficacious in vivo

Molecule: Depudecin [reference compound]
EC50 ([1]; control, read-out: EC50): > 10000 nM
Concentrations at which HDAC is inhibited (HDAC [3]): micromolar
